# Source: patent US10125126B2, “N-cycloalkyl-N-[(heterocyclylphenyl)methylene]-(thio)carboxamide derivatives” (BAYER CROPSCIENCE AG, priority 2012, dated 2018)
# Where two headings read alike, the source gives them in different places.
# Tests used:
# Sphaerotheca fuliginea = assay: In vivo preventive test on Sphaerotheca fuliginea (powdery mildew on cucurbits); conditions: gherkin plants, 12 days after contamination; for pest or weed control at 500 ppm / Efficacy: 500 ppm of active ingredient
# Experimental: In Vivo Preventive Test on Sphaerotheca fuliginea (Powdery Mildew on Cucurbits) […] Gherkin plants (“Vert petit de Paris” variety), sown in starter cups on a 50/50 peat soil-pozzolana substrate and grown at 24° C., are treated at the Z11 cotyledon stage by spraying with the active ingredient prepared as described above. Plants, used as controls, are treated with the mixture of acetone/tween/DMSO/water not containing the active material. After 24 hours, the plants are contaminated by spraying the cotyledons with an aqueous suspension of Sphaerotheca fuliginea spores (100 000 spores per mL). The spores are collected from infected plants. […] Grading (% of efficacy) is carried out 12 days after the contamination, in comparison with the control plants.
# [1] = log P by HPLC on a reversed-phase column (C 18), EEC Directive 79/831 Annex V.A8; format: physicochemical
# Experimental: In table 1, the log P values were determined in accordance with EEC Directive 79/831 Annex V.A8 by HPLC (High Performance Liquid Chromatography) on a reversed-phase column (C 18), using the method described below: Temperature: 40° C.; Mobile phases: 0.1% aqueous formic acid and acetonitrile; linear gradient from 10% acetonitrile to 90% acetonitrile. Calibration was carried out using unbranched alkan-2-ones (comprising 3 to 16 carbon atoms) with known log P values (determination of the log P values by the retention times using linear interpolation between two successive alkanones). lambda-max-values were determined using UV-spectra from 200 nm to 400 nm and the peak values of the chromatographic signals.
# Septoria tritici = assay: In vivo preventive test on Septoria tritici (wheat); conditions: wheat plants, 24 days after contamination
# Experimental: In Vivo Preventive Test on Septoria tritici (Wheat) […] Wheat plants (“Scipion” variety), sown in starter cups on a 50/50 peat soil pozzolana substrate and grown at 22° C., are treated at the 1 leaf stage (10 cm height) by spraying with the active ingredient prepared as described above. Plants, used as controls, are treated with the mixture of acetone/tween/DMSO/water not containing the active material. After 24 hours, the plants are contaminated by spraying the leaves with an aqueous suspension of cryopreserved Septoria tritici spores (500 000 spores per mL). The contaminated wheat plants are incubated for 72 hours at 18° C. and at 100% relative humidity, and then for 21 days at 90% relative humidity. Grading (% of efficacy) is carried out 24 days after the contamination, in comparison with the control plants.
# Puccinia recondita = assay: In vivo preventive test on Puccinia recondita (brown rust on wheat); conditions: wheat plants, 12 days after contamination
# Experimental: In Vivo Preventive Test on Puccinia recondita (Brown Rust on Wheat) […] Wheat plants (“Scipion” variety), sown in starter cups on a 50/50 peat soil pozzolana substrate and grown at 22° C., are treated at the 1 leaf stage (10 cm height) by spraying with the active ingredient prepared as described above. Plants, used as controls, are treated with the mixture of acetone/tween/DMSO/water not containing the active material. After 24 hours, the plants are contaminated by spraying the leaves with an aqueous suspension of Puccinia recondita spores (100 000 spores per mL). The spores are collected from an infected plant and are suspended in water containing 2.5 mL/L of Tween 80 at 10%. […] Grading (% of efficacy) is carried out 12 days after the contamination, in comparison with the control plants.
# Uromyces appendiculatus = assay: In vivo preventive test on Uromyces appendiculatus (bean rust); conditions: 500 ppm of active ingredient; bean plants; 11 days after contamination
# Experimental: In Vivo Preventive Test on Uromyces appendiculatus (Bean Rust) […] Bean plants (“Saxa” variety), sown in starter cups on a 50/50 peat soil pozzolana substrate and grown at 24° C., are treated at the 2 leaf stage (9 cm height) by spraying with the active ingredient prepared as described above. Plants, used as controls, are treated with the mixture of acetone/tween/DMSO/water not containing the active material. After 24 hours, the plants are contaminated by spraying the leaves with an aqueous suspension of Uromyces appendiculatus spores (150 000 spores per mL). The spores are collected from infected plants and are suspended in water containing 2.5 mL/L of Tween 80 at 10%. […] Grading (% of efficacy) is carried out 11 days after the contamination, in comparison with the control plants.
# [2] = Podosphaera fuliginea, 288 h, read-out: Efficacy
# [3] = HPLC on reversed-phase column (C 18), 40° C., 0.1% aqueous formic acid and acetonitrile, linear gradient 10% to 90% acetonitrile
# [4] = reversed-phase HPLC column (C 18), HPLC, C 18, 40° C., 0.1% aqueous formic acid and acetonitrile, read-out: logP
compound,measurement,setting,value
"Cn1cc(C(=O)N(Cc2ccc(-c3cccnc3)cc2Cl)C2CC2)c(C(F)F)n1 [CMP1, N-[2-chloro-4-(pyridin-3-yl)benzyl]-N-cyclopropyl-3-(difluoromethyl)-1-methyl-1H-pyrazole-4-carboxamide, reference compound]",pest or weed control at 100 ppm,"Sphaerotheca fuliginea; Podosphaera fuliginea, 288 h, 100 ppm of active ingredient, read-out: Efficacy",0%
"Cn1nc(C(F)F)c(C(=O)N(Cc2ccccc2-c2cccc(Cl)n2)C2CC2)c1F [CMP3, N-[2-(6-chloropyridin-2-yl)benzyl]-N-cyclopropyl-3-(difluoromethyl)-5-fluoro-1-methyl-1H-pyrazole-4-carboxamide, reference compound]",pest or weed control at 500 ppm,Sphaerotheca fuliginea; [2],< 40%
"Cn1cc(C(=O)N(Cc2ccccc2-c2cccc(Cl)n2)C2CC2)c(C(F)F)n1 [CMP4, N-[2-(6-chloropyridin-2-yl)benzyl]-N-cyclopropyl-3-(difluoromethyl)-1-methyl-1H-pyrazole-4-carboxamide, reference compound]",pest or weed control at 500 ppm,Sphaerotheca fuliginea; [2],< 40%
"Cn1nc(C(F)F)c(C(=O)N(Cc2ccccc2-c2cccc(Cl)n2)C2CC2)c1Cl [CMP5, 5-chloro-N-[2-(6-chloropyridin-2-yl)benzyl]-N-cyclopropyl-3-(difluoromethyl)-1-methyl-1H-pyrazole-4-carboxamide, reference compound]",pest or weed control at 500 ppm,Sphaerotheca fuliginea; [2],< 40%
CC1OCC1c1ccccc1CN(C(=O)c1c(C(F)F)nn(C)c1Cl)C1CC1 (stereo not drawn) [I.16],logP,[1]; [3],2.08
same,Efficacy,Septoria tritici; 500 ppm of active ingredient,90%
Cc1ccc(-c2ccoc2)c(CN(C(=O)c2c(C(F)F)nn(C)c2F)C2CC2)c1 [I.39],logP,[1]; [3],3.55
same,Efficacy,Puccinia recondita; 100 ppm of active ingredient,88%
same,Efficacy,Septoria tritici; 100 ppm of active ingredient,80%
Cc1ccc(-c2cnn(C)c2)c(CN(C(=O)c2c(C(F)F)nn(C)c2F)C2CC2)c1 [I.58],logP,[1]; [3],2.63
same,Efficacy,Septoria tritici; 100 ppm of active ingredient,97%
Cn1cc(C(=O)N(Cc2cc(Cl)ccc2-c2cccs2)C2CC2)c(C(F)F)n1 [I.71],Efficacy,Uromyces appendiculatus,81%
same,logP,[1]; [3],3.69
same,Efficacy,Sphaerotheca fuliginea,98%
same,Efficacy,Septoria tritici; 500 ppm of active ingredient,90%
Cn1nc(C(F)F)c(C(=O)N(Cc2cc(Cl)ccc2-c2cccs2)C2CC2)c1Cl [I.77],Efficacy,Uromyces appendiculatus,84%
same,logP,[1]; [3],4.29
Cn1nc(C(F)F)c(C(=S)N(Cc2cc(Cl)ccc2-c2cccs2)C2CC2)c1Cl [I.79],Efficacy,Uromyces appendiculatus,100%
same,logP,[1]; [3],4.92
same,Efficacy,Septoria tritici; 500 ppm of active ingredient,75%
CC1CC1N(Cc1ccccc1-c1ccsc1)C(=O)c1c(C(F)F)nn(C)c1Cl (stereo not drawn) [I.88],logP,[1]; [3],3.92
same,Efficacy,Puccinia recondita; 500 ppm of active ingredient,94%
same,Efficacy,Septoria tritici; 500 ppm of active ingredient,79%
Cc1nn(C)c(C)c1-c1ccc(F)cc1CN(C(=O)c1c(C(F)F)nn(C)c1F)C1CC1 [I.112],logP,[1]; [3],2.66
same,Efficacy,Sphaerotheca fuliginea,100%
same,Efficacy,Puccinia recondita; 500 ppm of active ingredient,83%
same,Efficacy,Septoria tritici; 500 ppm of active ingredient,100%
Cc1nn(C)c(C)c1-c1ccc(Cl)cc1CN(C(=O)c1c(C(F)F)nn(C)c1F)C1CC1 [I.113],logP,[1]; [3],2.98
same,Efficacy,Sphaerotheca fuliginea,98%
same,Efficacy,Septoria tritici; 500 ppm of active ingredient,70%
Cc1cc(C(=O)N(Cc2cc(-c3ccc(Cl)s3)ccc2Cl)C2CC2)c(C)o1 [I.152],logP,[1]; [3],5.54
CC(C)c1ccc(-c2cn(C)c3ccccc23)cc1CN(C(=O)c1c(C(F)F)nn(C)c1F)C1CC1 [I.153],logP,[1]; [3],4.74
Cc1ccc(-c2csc3ccccc23)c(CN(C(=O)c2cn(C)nc2C(F)F)C2CC2)c1 [I.161],logP,[1]; [3],4.15
Cc1ccc(-c2csc3ccccc23)c(CN(C(=O)c2c(C(F)F)nn(C)c2Cl)C2CC2)c1 [I.162],logP,[1]; [3],4.83
Cc1ccc(-c2csc3ccccc23)c(CN(C(=O)c2c(C(F)F)nn(C)c2F)C2CC2C)c1 (stereo not drawn) [I.163],logP,[1]; [3],4.98
Cc1ccc(-c2csc3ccccc23)c(CN(C(=O)c2c(C(F)F)nn(C)c2Cl)C2CC2C)c1 (stereo not drawn) [I.164],logP,[1]; [3],5.19
Cc1ccc(-c2csc3ccccc23)c(CN(C(=O)c2cn(C)nc2C(F)F)C2CC2C)c1 (stereo not drawn) [I.165],logP,[1]; [3],4.46
Cc1ccc(-c2csc3ccccc23)c(CN(C(=O)c2c(C(F)F)nn(C)c2F)C2CC2C)c1 (stereo not drawn) [I.166],logP,[1]; [3],4.92
Cc1ccc(-c2csc3ccccc23)c(CN(C(=O)c2c(C(F)F)nn(C)c2Cl)C2CC2C)c1 (stereo not drawn) [I.167],logP,[1]; [3],5.05
Cn1nc(C(F)F)c(C(=O)N(Cc2ccccc2OC2CCOCC2)C2CC2)c1F [I.169],logP,[1]; [3],2.80
CC(c1ccccc1Cc1ccc(Cl)cn1)N(C(=O)c1c(C(F)F)nn(C)c1F)C1CC1 (stereo not drawn) [I.171],logP,[1]; [3],3.68
"Clc1ccc(-c2ccco2)c(CNC2CC2)c1 [IIa.1, N-[5-chloro-2-(2-furyl)benzyl]cyclopropanamine]",chromatographic logP,[1]; [4],0.99
"Clc1ccc(-c2cccs2)c(CNC2CC2)c1 [IIa.2, N-[5-chloro-2-(2-thienyl)benzyl]cyclopropanamine]",chromatographic logP,[1]; [4],1.1
"c1ccc(-c2ccsc2)c(CNC2CC2)c1 [IIa.3, N-[2-(3-thienyl)benzyl]cyclopropanamine]",chromatographic logP,[1]; [4],1.34
"CC(NC1CC1)c1ccccc1-c1ccsc1 (stereo not drawn) [IIa.4, N-{1-[2-(3-thienyl)phenyl]ethyl}cyclopropanamine]",chromatographic logP,[1]; [4],1.42
"Clc1ccc(-c2ccsc2)c(CNC2CC2)c1 [IIa.5, N-[5-chloro-2-(3-thienyl)benzyl]cyclopropanamine]",chromatographic logP,[1]; [4],1.12
"Clc1ccc(-c2ccccc2CNC2CC2)s1 [IIa.6, N-[2-(5-chloro-2-thienyl)benzyl]cyclopropanamine]",chromatographic logP,[1]; [4],1.28
"Clc1ccc(-c2ccc(Cl)s2)c(CNC2CC2)c1 [IIa.7, N-[5-chloro-2-(5-chloro-2-thienyl)benzyl]cyclopropanamine]",chromatographic logP,[1]; [4],1.51
"Clc1ccc(-c2ccco2)cc1CNC1CC1 [IIb.1, N-[2-chloro-5-(2-furyl)benzyl]cyclopropanamine]",chromatographic logP,[1]; [4],1.08
"Clc1ccc(-c2cccs2)cc1CNC1CC1 [IIb.2, N-[2-chloro-5-(2-thienyl)benzyl]cyclopropanamine]",chromatographic logP,[1]; [4],1.29
"Clc1ccc(-c2ccsc2)cc1CNC1CC1 [IIb.3, N-[2-chloro-5-(3-thienyl)benzyl]cyclopropanamine]",chromatographic logP,[1]; [4],1.28
"Clc1ccc(-c2ccc(Cl)c(CNC3CC3)c2)s1 [IIb.4, N-[2-chloro-5-(5-chloro-2-thienyl)benzyl]cyclopropanamine]",chromatographic logP,[1]; [4],1.58
CC(C)c1ccc(Cl)cc1CN(C(=O)c1c(C(F)F)nn(C)c1F)C1CC1 [N-(5-chloro-2-isopropylbenzyl)-N-cyclopropyl-3-(difluoromethyl)-5-fluoro-1-methyl-1H-pyrazole-4-carboxamide],chromatographic logP,[1]; [4],4.06
C=C(C)c1ccc(Cl)cc1CN(C(=O)c1c(C(F)F)nn(C)c1F)C1CC1 [N-[5-chloro-2-(prop-1-en-2-yl)benzyl]-N-cyclopropyl-3-(difluoromethyl)-5-fluoro-1-methyl-1H-pyrazole-4-carboxamide],chromatographic logP,[1]; logP,3.96
"CC(C)c1ccc(Cl)cc1CNC(=O)c1c(C(F)F)nn(C)c1F [Xa.1, N-(5-chloro-2-isopropylbenzyl)-3-(difluoromethyl)-5-fluoro-1-methyl-1H-pyrazole-4-carboxamide]",chromatographic logP,[1]; logP,3.46
N-cyclopropyl-3-(difluoromethyl)-5-fluoro-1-methyl-N-[2-(3-methyloxetan-3-yl)benzyl]-1H-pyrazole-4-carboxamide [I.15],logP,[1]; [3],1.94
same,logP,"[1]; HPLC, C 18, 40° C., 0.1% aqueous formic acid and acetonitrile",1.94
